From paper PMC10892375, “Determination of the Cannabinoid CB1 Receptor’s Positive Allosteric Modulator Binding Site through Mutagenesis Studies” (Pharmaceuticals, 2024)

Experiments:
Type in all cases: cell-based
[1] = molecular target: T1, hCB1 mutant S173A^2.60 (Homo sapiens, UniProt P21554, S173A); assay: pIRES G protein dissociation BRET assay, S173A mutant
T1 construct: expressed in transfected cells; host or cells: HEK293
Description: (§1) Mutagenesis studies using the pIRES G protein dissociation assay were performed using human embryonic kidney 293 (HEK293) wild-type cells transiently transfected with pplss-3HA-hCB1 [31] or modified receptor. All cells were cultured in Dulbecco’s Modified Eagle’s Medium (DMEM) supplemented with 10% fetal bovine serum (FBS), grown in […] vented-cap flasks, and maintained in a 37° C incubator at 5% CO2.
(§2) Mutants of pplss-3HA-hCB1 (WT, pEF-V4-HisA (pEF4a) construct) were generated using a modified QuikChange® (Stratagene, San Diego, CA, USA) site-directed mutagenesis approach using KAPA HiFi Hotstart Polymerase (KAPA Biosystems, Roche, Basel, Switzerland). Briefly, single-stranded primers used to modify one or two base pairs within the target amino acid using PCR were purchased from Integrated DNA Technologies (IDT, Coralville, IA, USA). All pplss-hCB1 mutants were generated using the pplss-3HA-hCB1 pEF4a as parental DNA. PCR products were generated using recommended cycling conditions and treated with Dpn1 (New England Biolabs, Ipswich, MA, USA) overnight at 37° C to digest methylated parental DNA. PCR products were electrophoresed and run on an agarose gel (1% (w.v^−1) agarose, HydraGene, Piscataway, NJ, USA) containing 0.25 μg/mL ethidium bromide (Sigma-Aldrich, St. Louis, MO, USA). Gels were run in 40 mM TRIS-acetate buffer containing […] (pH 8.3) at 100 V for 30 min, maximum current and included a 1kb+ DNA ladder (Invitrogen, Thermo Fisher Scientific, Carlsbad, CA, USA) for reference. Gels were imaged using an UVTech Alliance Q9 Mini transilluminator (UVTech Alliance, Cambridge, UK). Digested products were then used to transform NEB 5α competent E. coli cells in accordance with manufacturer’s instructions. Briefly, transformed PCR products were grown overnight on 8.5 mL Luria Broth agar plates (containing 100 μg/mL ampicillin) at 37° C. Single bacterial colonies were picked and inoculated in Luria Broth (containing 100 μg/mL ampicillin) and grown overnight in a shaking incubator at 37° C. Plasmids were then harvested and purified using a Qiagen miniprep kit (Qiagen, Hilden, Germany) and validated using sequencing (Genetics Analysis Service, University of Otago, Dunedin, New Zealand).
(§3) Dissociation of the G protein heterotrimer, specifically Gαi1, Gβ1, and Gγ2, was investigated using a bioluminescence resonance energy transfer (BRET) assay with the pIRES biosensor first described by and adapted by.
(§4) Briefly, 3 × 10^6 WT HEK293 cells were seeded into 10 cm culture dishes (Corning, Corning, NY, USA; one dish for the control receptor and one for each modified receptor) and incubated at 37 °C for 24 h to gain 50–60% confluency. Culture medium was then replaced and transfection mixtures containing 3 μg pIRES vector and 1 μg receptor (either pplss-hCB1 or modified receptor) were prepared (4 μg total DNA). Plasmids were initially diluted in sterile Milli-Q water before being diluted in OptiMEM reduced serum medium (Thermo Fisher Scientific, Waltham, MA, USA) and combined with […] polyethylenimine (PEI)-max (1:9 DNA:PEI-max ratio) and incubated at room temperature for 20 min. Transfection mixtures were then added to cells via dropwise addition, and cells were incubated at 37 °C for 24 h. Transfected cells were lifted and plated at 50,000 cells/well into poly-d-lysine (PDL; Sigma-Aldrich) coated white 96-well CulturPlates (PerkinElmer, Waltham, MA, USA) and incubated for a further 24 h at 37 °C.
(§5) To assay, the culture medium was aspirated and cells were washed with phosphate buffered saline (PBS) and replaced with BRET assay medium (phenol red free DMEM containing 25 mM HEPES and supplemented with 1 mg/mL bovine serum albumin; BSA, MP Biomedicals, Auckland, New Zealand) for 30 min prior to drug addition (serum starve). Drugs were prepared at 10 × concentration in BRET assay medium, combined in a polypropylene V-bottom plate, and incubated at 37° C prior to drug stimulation.

[2] = molecular target: T2, hCB1 mutant I169A^2.56 (Homo sapiens, UniProt P21554, I169A); assay: pIRES G protein dissociation BRET assay, I169A mutant
T2 construct: expressed in transfected cells; host or cells: HEK293
Description: as §1, §2, §3, §4, §5

[3] = molecular target: T3, hCB1 mutant I245A^4.54 (Homo sapiens, UniProt P21554, I245A); assay: pIRES G protein dissociation BRET assay, I245A mutant
T3 construct: expressed in transfected cells; host or cells: HEK293
Description: as §1, §2, §3, §4, §5

[4] = molecular target: T4, hCB1 mutant R148A^12.51 (Homo sapiens, UniProt P21554, R148A); assay: pIRES G protein dissociation BRET assay, R148A mutant
T4 construct: expressed in transfected cells; host or cells: HEK293
Description: as §1, §2, §3, §4, §5

[5] = molecular target: T5, hCB1 mutant H154A^2.41 (Homo sapiens, UniProt P21554, H154A); assay: pIRES G protein dissociation BRET assay, H154A mutant
T5 construct: expressed in transfected cells; host or cells: HEK293
Description: as §1, §2, §3, §4, §5

[6] = molecular target: T6, hCB1 mutant K232A^4.41 (Homo sapiens, UniProt P21554, K232A); assay: pIRES G protein dissociation BRET assay, K232A mutant
T6 construct: expressed in transfected cells; host or cells: HEK293
Description: as §1, §2, §3, §4, §5

[7] = molecular target: T7, hCB1 mutant L209A^3.45 (Homo sapiens, UniProt P21554, L209A); assay: pIRES G protein dissociation BRET assay, L209A mutant
T7 construct: expressed in transfected cells; host or cells: HEK293
Description: as §1, §2, §3, §4
To assay, the culture medium was aspirated and cells were washed with phosphate buffered saline (PBS) and replaced with BRET assay medium (phenol red free DMEM containing 25 mM HEPES and supplemented with 1 mg/mL bovine serum albumin; BSA, MP Biomedicals, Auckland, New Zealand) for 30 min prior to drug addition (serum starve). Drugs were prepared at 10 × concentration in BRET assay medium, combined in a polypropylene V-bottom plate, and incubated at 37° C prior to drug stimulation. […]

[8] = molecular target: T8, hCB1 mutant F289A^5.53 (Homo sapiens, UniProt P21554, F289A); assay: pIRES G protein dissociation BRET assay, F289A mutant
T8 construct: expressed in transfected cells; host or cells: HEK293
Description: as §1, §2, §3, §4, §5

[9] = molecular target: T9, hCB1 mutant R220A^3.56 (Homo sapiens, UniProt P21554, R220A); assay: pIRES G protein dissociation BRET assay, R220A mutant
T9 construct: expressed in transfected cells; host or cells: HEK293
Description: as §1, §2, §3, §4, §5

[10] = molecular target: T10, hCB1 mutant L404A^8.50 (Homo sapiens, UniProt P21554, L404A); assay: pIRES G protein dissociation BRET assay, L404A mutant
T10 construct: expressed in transfected cells; host or cells: HEK293
Description: as §1, §2, §3, §4, §5

[11] = molecular target: T11, hCB1 mutant F408A^8.54 (Homo sapiens, UniProt P21554, F408A); assay: pIRES G protein dissociation BRET assay, F408A mutant
T11 construct: expressed in transfected cells; host or cells: HEK293
Description: as §1, §2, §3, §4, §5

[12] = 10 μM CP55940 in the presence of 10 μM ZCZ011
[13] = in the presence of 10 μM GAT228
[14] = in the presence of 10 μM GAT229
[15] = top of the curve (maximal response)

T10 sequence (P21554 whole entry L404A): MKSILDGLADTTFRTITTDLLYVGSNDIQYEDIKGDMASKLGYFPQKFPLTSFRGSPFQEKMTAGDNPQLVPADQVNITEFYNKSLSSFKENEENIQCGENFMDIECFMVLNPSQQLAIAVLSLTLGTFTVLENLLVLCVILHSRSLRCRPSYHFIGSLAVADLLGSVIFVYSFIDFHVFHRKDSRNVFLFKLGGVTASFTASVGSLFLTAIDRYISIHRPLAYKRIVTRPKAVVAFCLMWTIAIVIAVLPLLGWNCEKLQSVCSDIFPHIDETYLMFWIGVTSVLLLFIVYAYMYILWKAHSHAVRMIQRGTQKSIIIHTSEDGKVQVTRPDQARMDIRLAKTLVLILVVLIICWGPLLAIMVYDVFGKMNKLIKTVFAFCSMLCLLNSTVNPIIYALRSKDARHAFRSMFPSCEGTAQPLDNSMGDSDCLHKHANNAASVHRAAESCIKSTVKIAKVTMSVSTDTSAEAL
T2 sequence (P21554 whole entry I169A): as the sequence (P21554 whole entry L404A) above, with I169A, A404L counted along it
T1 sequence (P21554 whole entry S173A): as the sequence (P21554 whole entry L404A) above, with S173A, A404L counted along it
T6 sequence (P21554 whole entry K232A): as the sequence (P21554 whole entry L404A) above, with K232A, A404L counted along it
T5 sequence (P21554 whole entry H154A): as the sequence (P21554 whole entry L404A) above, with H154A, A404L counted along it
T9 sequence (P21554 whole entry R220A): as the sequence (P21554 whole entry L404A) above, with R220A, A404L counted along it
T3 sequence (P21554 whole entry I245A): as the sequence (P21554 whole entry L404A) above, with I245A, A404L counted along it
T8 sequence (P21554 whole entry F289A): as the sequence (P21554 whole entry L404A) above, with F289A, A404L counted along it
T4 sequence (P21554 whole entry R148A): as the sequence (P21554 whole entry L404A) above, with R148A, A404L counted along it
T11 sequence (P21554 whole entry F408A): as the sequence (P21554 whole entry L404A) above, with A404L, F408A counted along it
T7 sequence (P21554 whole entry L209A): as the sequence (P21554 whole entry L404A) above, with L209A, A404L counted along it

CCCCCCC(C)(C)c1ccc([C@@H]2C[C@H](O)CC[C@H]2CCCO)c(O)c1 [CP55940]
G protein dissociation, AUC, 10 μM CP55940 + 10 μM ZCZ011 [1, 12]: −186.8 ± 5.5
G protein dissociation, AUC of 10 μM compound (maximal response) ([1]; 10 μM ligand alone): −146.2 ± 5.5
EMAX, CP55940 + 10 μM GAT228 [1, 13]: −176.1 ± 6.9 ∆BRET.sec
EMAX, CP55940 + 10 μM GAT229 [1, 14]: −186.4 ± 7.5 ∆BRET.sec
EMAX, CP55940 Alone [1, 15]: −143.0 ± 5.7 ∆BRET.sec
G protein dissociation, AUC of 10 μM compound (maximal response) ([2]; 10 μM ligand alone): −113.1 ± 11.7
EMAX, CP55940 + 10 μM GAT228 [2, 13]: −117.0 ± 7.4 ∆BRET.sec
EMAX, CP55940 + 10 μM GAT229 [2, 14]: −109.7 ± 8.3 ∆BRET.sec
EMAX, CP55940 Alone [2, 15]: −110.7 ± 10.3 ∆BRET.sec
G protein dissociation, AUC, 10 μM CP55940 + 10 μM ZCZ011 [3, 12]: −183.2 ± 7.2
EMAX, CP55940 + 10 μM GAT228 [3, 13]: −163.7 ± 8.2 ∆BRET.sec
EMAX, CP55940 + 10 μM GAT229 [3, 14]: −182.9 ± 7.0 ∆BRET.sec
EMAX, CP55940 Alone [3, 15]: −150.1 ± 9.8 ∆BRET.sec
G protein dissociation, AUC, 10 μM CP55940 + 10 μM ZCZ011 [4, 12]: −237.3 ± 11.6
EMAX, CP55940 + 10 μM GAT228 [4, 13]: −218.2 ± 8.5 ∆BRET.sec
EMAX, CP55940 + 10 μM GAT229 [4, 14]: −243.9 ± 5.4 ∆BRET.sec
EMAX, CP55940 Alone [4, 15]: −175.6 ± 11.4 ∆BRET.sec
G protein dissociation, AUC, 10 μM CP55940 + 10 μM ZCZ011 [5, 12]: −189.5 ± 8.5
EMAX, CP55940 + 10 μM GAT228 [5, 13]: −200.5 ± 11.6 ∆BRET.sec
EMAX, CP55940 + 10 μM GAT229 [5, 14]: −210.6 ± 10.1 ∆BRET.sec
EMAX, CP55940 Alone [5, 15]: −151.8 ± 5.9 ∆BRET.sec
G protein dissociation, AUC, 10 μM CP55940 + 10 μM ZCZ011 [6, 12]: −194.9 ± 7.2
G protein dissociation, AUC of 10 μM compound (maximal response) ([6]; 10 μM ligand alone): −167.7 ± 9.6
EMAX, CP55940 + 10 μM GAT228 [6, 13]: −181.9 ± 8.6 ∆BRET.sec
EMAX, CP55940 + 10 μM GAT229 [6, 14]: −194.9 ± 9.0 ∆BRET.sec
EMAX, CP55940 Alone [6, 15]: −160.6 ± 7.6 ∆BRET.sec
G protein dissociation, AUC, 10 μM CP55940 + 10 μM ZCZ011 [7, 12]: −71.3 ± 4.2
G protein dissociation, AUC of 10 μM compound (maximal response) ([7]; 10 μM ligand alone): −42.7 ± 2.8
EMAX, CP55940 + 10 μM GAT228 [7, 13]: −43.2 ± 4.5 ∆BRET.sec
EMAX, CP55940 + 10 μM GAT229 [7, 14]: −51.9 ± 2.8 ∆BRET.sec
EMAX, CP55940 Alone [7, 15]: −39.8 ± 1.1 ∆BRET.sec
G protein dissociation, AUC, 10 μM CP55940 + 10 μM ZCZ011 [8, 12]: −167.8 ± 6.9
EMAX, CP55940 + 10 μM GAT228 [8, 13]: −156.7 ± 5.3 ∆BRET.sec
EMAX, CP55940 + 10 μM GAT229 [8, 14]: −161.1 ± 6.5 ∆BRET.sec
EMAX, CP55940 Alone [8, 15]: −145.4 ± 5.7 ∆BRET.sec
G protein dissociation, AUC, 10 μM CP55940 + 10 μM ZCZ011 [9, 12]: −137.8 ± 5.0
G protein dissociation, AUC of 10 μM compound (maximal response) ([9]; 10 μM ligand alone): −112.1 ± 2.9
EMAX, CP55940 + 10 μM GAT228 [9, 13]: −140.1 ± 13.5 ∆BRET.sec
EMAX, CP55940 + 10 μM GAT229 [9, 14]: −144.6 ± 10.4 ∆BRET.sec
EMAX, CP55940 Alone [9, 15]: −110.8 ± 2.8 ∆BRET.sec
G protein dissociation, AUC, 10 μM CP55940 + 10 μM ZCZ011 [10, 12]: −133.5 ± 5.6
G protein dissociation, AUC of 10 μM compound (maximal response) ([10]; 10 μM ligand alone): −110.3 ± 3.7
EMAX, CP55940 + 10 μM GAT228 [10, 13]: −115.1 ± 8.3 ∆BRET.sec
EMAX, CP55940 + 10 μM GAT229 [10, 14]: −122.3 ± 7.0 ∆BRET.sec
EMAX, CP55940 Alone [10, 15]: −103.1 ± 3.6 ∆BRET.sec
G protein dissociation, AUC, 10 μM CP55940 + 10 μM ZCZ011 [11, 12]: −159.7 ± 13.4
G protein dissociation, AUC of 10 μM compound (maximal response) ([11]; 10 μM ligand alone): −131.7 ± 10.4
EMAX, CP55940 + 10 μM GAT228 [11, 13]: −148.4 ± 11.4 ∆BRET.sec
EMAX, CP55940 + 10 μM GAT229 [11, 14]: −154.0 ± 14.5 ∆BRET.sec
EMAX, CP55940 Alone [11, 15]: −128.6 ± 12.1 ∆BRET.sec
